Five compounds from patent US11382956B2, “Amylin analogues” (Zealand Pharma A/S, priority 2016, dated 2022) can be followed below.

Numbered stars: 1 amine (or outer) side, 2 acyl side, 3 side chain; on linkers, the order of the positions; unused ones are H or OH. Bridge positions count the residues as written; N and C are the ends. Square brackets hold non-standard residues; d marks the D form. Peptide text beside a SMILES is read from it. * marks the point of attachment. C20 diacid = O=C(O)CCCCCCCCCCCCCCCCCCC(=O)*; γGlu = O=C(O)[C@H](CCC(=O)[*:2])N[*:1]; Hyp = O=C(O)[C@@H]1C[C@@H](O)CN1; NMeI = CC[C@H](C)[C@H](NC)C(=O)O; Orn = NCCC[C@H](N)C(=O)O; Dab = NCC[C@H](N)C(=O)O; Dap = NC[C@H](N)C(=O)O; Sar = CNCC(=O)O

For orientation: EC50 means the concentration that produces a half-maximal response.

For series [1], the target named is T1, recombinant human calcitonin receptor (hCT-R) (Homo sapiens, UniProt P30988).
T1 construct: host or cells: human astrocytoma cell line 1321N1
T1 sequence (P30988 25-474): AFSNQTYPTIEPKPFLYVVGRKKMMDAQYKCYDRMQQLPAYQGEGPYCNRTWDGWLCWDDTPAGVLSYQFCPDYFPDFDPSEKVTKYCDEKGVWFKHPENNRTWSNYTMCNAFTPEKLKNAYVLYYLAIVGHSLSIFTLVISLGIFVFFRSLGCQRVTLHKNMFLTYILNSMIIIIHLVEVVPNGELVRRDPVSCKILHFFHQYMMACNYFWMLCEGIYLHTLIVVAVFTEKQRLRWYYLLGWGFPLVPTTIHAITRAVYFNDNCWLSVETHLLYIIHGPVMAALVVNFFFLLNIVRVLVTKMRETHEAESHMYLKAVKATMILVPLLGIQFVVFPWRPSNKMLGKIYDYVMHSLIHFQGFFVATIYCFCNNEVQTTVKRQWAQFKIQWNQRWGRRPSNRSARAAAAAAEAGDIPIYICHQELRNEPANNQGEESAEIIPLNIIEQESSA
Kind of series: hCT-R cAMP assay (AlphaScreen) in 1321N1 cells. Type of series: cell-based. The settings on record: cAMP formation, 45 min stimulation. An excerpt: (§1) For the assessment of the in vitro activity of test peptides, cell lines expressing recombinant human calcitonin receptor (hCT-R) or recombinant human amylin 3 receptor (hAMYR3) in the background of the human astrocytoma cell line 1321N1 were purchased from DiscoveRx Corporation (Cat. No. 95-016106 and 95-0166C6). The hAMYR3 is a hetero-oligomer of the calcitonin receptor (Isoform 2; Gene ID 799) and RAMPS (Gene ID 10268) that forms when both genes are expressed in the same cell. The hCT-R cell line expresses only the recombinant human calcitonin receptor gene (Isoform 2; Gene ID 799). Upon activation of hCT-R or hAMYR3 by the test peptides the formation of cAMP is induced and was measured using the AlphaScreen® cAMP Assay kit from Perkin-Elmer (Cat. No. 6760635R).
(§2) Briefly, 1321N1 cells expressing hCT-R or hAMYR3 were seeded in 384-well microtiter plates (Falcon Optilux White, Cat.-No. 10448642) at 5,000 cells in […] growth medium per well (AssayComplete 1321N1 Cell Culture Kit, DiscoveRx Corp.), and incubated for 24 h at 37° C., 5% CO2. On the day of analysis growth medium was removed and the cells were stimulated by adding 10 μL of stimulation buffer (10 […], 0.1% BSA) containing increasing concentrations of test peptides, and incubation for 45 min at room temperature. The stimulation was stopped by adding 5.6 μL/well donor bead detection mix (5 mM Hepes pH7.4, 0.5% TWEEN 20, 0.1% BSA, 0.05 mg/mL donor beads, 62.5 nM biotinylated cAMP) and 4.5 μL/well acceptor bead solution (5 mM Hepes pH7.4, 0.5% TWEEN 20, 0.1% BSA, 0.05 mg/mL acceptor beads). After thorough mixing the plates were incubated in the dark for 1 h at room temperature and the cAMP content of the resulting cell lysates was estimated according to the AlphaScreen® cAMP Assay manufacturer's instructions. EC50 values were estimated by computer-aided curve fitting of results of at least 7 different compound concentrations.

The target in series [2] is T2, recombinant human amylin 3 receptor (hAMYR3) (Homo sapiens, UniProt O60896+P30988).
T2 construct: host or cells: human astrocytoma cell line 1321N1
T2 sequence (P30988 25-474): T1 sequence (P30988 25-474)
T2 sequence (O60896 24-148 partner): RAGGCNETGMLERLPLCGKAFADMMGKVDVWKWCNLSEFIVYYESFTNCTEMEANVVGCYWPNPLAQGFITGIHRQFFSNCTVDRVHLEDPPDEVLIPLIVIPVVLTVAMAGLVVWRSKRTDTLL
Briefly: hAMYR3 cAMP assay (AlphaScreen) in 1321N1 cells. Type of series: cell-based. The settings on record: cAMP formation, 45 min stimulation.
Excerpt: as §1, §2
For orientation: Cyclic AMP is a second messenger, typically raised through Gs and lowered through Gi signalling.

Series [3] is described as follows: Assessment of chemical stability in 40 mM buffers at 40° C. (RP-HPLC). Type of series: physicochemical. The note with it: 1 mg/mL. On the procedure: Samples of each test peptide were dissolved in acetate buffer pH 4 and phosphate buffer pH 6 and 7 (all buffer 40 mM). The final peptide concentration was 1 mg/mL. Samples were placed in glass vials and incubated at 40° C. The samples were analyzed by RP-HPLC on a C8 column with gradient elution using a trifluoroacetic acid/acetonitrile/water eluent system. The area-percentage (area-%) of the main peak was determined by UV spectroscopy at 220 nm at each sampling time point.
The % degradation was calculated by subtracting the […].
The results of the chemical stability assessment after 3 days of incubation time are summarized as % degradation in Table 1 (below).
The results of the chemical stability assessment after 14 days of incubation time are summarized as % degradation in Table 2 (below).

As for `CC[C@H](C)[C@@H](C(=O)N[C@@H](CC(C)C)C(=O)N[C@@H](CO)C(=O)N[C@@H](CO)C(=O)N[C@H](C(=O)N[C@@H](CCC(=O)O)C(=O)N[C@H](C(=O)NCC(=O)N[C@@H](CO)C(=O)N[C@@H](CC(N)=O)C(=O)N[C@H](C(=O)N1C[C@H](O)C[C@H]1C(N)=O)[C@@H](C)O)C(C)C)[C@@H](C)O)N(C)C(=O)[C@H](C)NC(=O)CN(C)C(=O)[C@H](Cc1ccccc1)NC(=O)[C@H](CO)NC(=O)[C@H](CO)NC(=O)[C@H](CCCNC(=N)N)NC(=O)[C@H](CCC(N)=O)NC(=O)[C@H](CC(C)C)NC(=O)[C@H](Cc1ccccc1)NC(=O)[C@H](Cc1c[nH]cn1)NC(=O)[C@H](C)NC(=O)[C@H](CC(C)C)NC(=O)[C@H](CCCNC(=N)N)NC(=O)[C@H](CCC(=O)O)NC(=O)[C@@H](NC(=O)[C@H](C)NC(=O)[C@@H]1CNC(=O)C[C@H](NC(=O)[C@H](CCCNC(=N)N)NC(=O)CC[C@H](NC(=O)CCCCCCCCCCCCCCCCCCC(=O)O)C(=O)O)C(=O)NCC(=O)N[C@@H]([C@@H](C)O)C(=O)N[C@@H](C)C(=O)N[C@@H]([C@@H](C)O)C(=O)N1)[C@@H](C)O` [Compound 1, [19CD]-isoGlu-RD()GTAT-Dap()-ATERLAHFLQRSSF-Gly(Me)-A-Ile(Me)-LSSTEVGSNT-Hyp-NH2] ({C20 diacid-γGlu}-RDGTAT[Dap]ATERLAHFLQRSSF[Sar]A[NMeI]LSSTEVGSNT[Hyp]-NH2; lactam 2-7), the 50% effective concentration (EC50) came out at 13.6 nM in series [1] and 9.3 nM in series [2].

Take `CC[C@H](C)[C@@H](C(=O)N[C@@H](CC(C)C)C(=O)N[C@@H](CO)C(=O)N[C@@H](CO)C(=O)N[C@H](C(=O)N[C@@H](CCC(=O)O)C(=O)N[C@H](C(=O)NCC(=O)N[C@@H](CO)C(=O)N[C@@H](CC(N)=O)C(=O)N[C@H](C(=O)N1C[C@H](O)C[C@H]1C(N)=O)[C@@H](C)O)C(C)C)[C@@H](C)O)N(C)C(=O)[C@H](C)NC(=O)CN(C)C(=O)[C@H](Cc1ccccc1)NC(=O)[C@H](CO)NC(=O)[C@H](CO)NC(=O)[C@H](CCCNC(=N)N)NC(=O)[C@H](CCC(N)=O)NC(=O)[C@H](CC(C)C)NC(=O)[C@H](Cc1ccccc1)NC(=O)[C@H](Cc1c[nH]cn1)NC(=O)[C@H](C)NC(=O)[C@H](CC(C)C)NC(=O)[C@H](CCCNC(=N)N)NC(=O)[C@H](CCC(=O)O)NC(=O)[C@@H](NC(=O)[C@H](C)NC(=O)[C@@H]1CCNC(=O)C[C@H](NC(=O)[C@H](CCCNC(=N)N)NC(=O)CC[C@H](NC(=O)CCCCCCCCCCCCCCCCCCC(=O)O)C(=O)O)C(=O)NCC(=O)N[C@@H]([C@@H](C)O)C(=O)N[C@@H](C)C(=O)N[C@@H]([C@@H](C)O)C(=O)N1)[C@@H](C)O` [Compound 2, [19CD]-isoGlu-RD()GTAT-Dab()-ATERLAHFLQRSSF-Gly(Me)-A-Ile(Me)-LSSTEVGSNT-Hyp-NH2] ({C20 diacid-γGlu}-RDGTAT[Dab]ATERLAHFLQRSSF[Sar]A[NMeI]LSSTEVGSNT[Hyp]-NH2; lactam 2-7): the EC50 is 0.105 nM in series [1] and 0.032 nM in series [2].

Regarding `CC[C@H](C)[C@@H](C(=O)N1CCC[C@H]1C(=O)N[C@@H](CO)C(=O)N[C@@H](CO)C(=O)N[C@H](C(=O)N[C@@H](CCC(=O)O)C(=O)N[C@H](C(=O)NCC(=O)N[C@@H](CO)C(=O)N[C@@H](CC(N)=O)C(=O)N[C@H](C(=O)N1C[C@H](O)C[C@H]1C(N)=O)[C@@H](C)O)C(C)C)[C@@H](C)O)N(C)C(=O)[C@H](C)NC(=O)CN(C)C(=O)[C@H](Cc1ccccc1)NC(=O)[C@H](CO)NC(=O)[C@H](CO)NC(=O)[C@H](CCCNC(=N)N)NC(=O)[C@H](CCC(N)=O)NC(=O)[C@H](CC(C)C)NC(=O)[C@H](Cc1ccccc1)NC(=O)[C@H](Cc1c[nH]cn1)NC(=O)[C@H](C)NC(=O)[C@H](CC(C)C)NC(=O)[C@H](CCCNC(=N)N)NC(=O)[C@H](CCC(=O)O)NC(=O)[C@@H](NC(=O)[C@H](C)NC(=O)[C@@H]1CCCNC(=O)C[C@H](NC(=O)[C@H](CCCNC(=N)N)NC(=O)CC[C@H](NC(=O)CCCCCCCCCCCCCCCCCCC(=O)O)C(=O)O)C(=O)NCC(=O)N[C@@H]([C@@H](C)O)C(=O)N[C@@H](C)C(=O)N[C@@H]([C@@H](C)O)C(=O)N1)[C@@H](C)O` [Compound 5, [19CD]-isoGlu-RD()GTAT-Orn()-ATERLAHFLQRSSF-Gly(Me)-A-Ile(Me)-PSSTEVGSNT-Hyp-NH2] ({C20 diacid-γGlu}-RDGTAT[Orn]ATERLAHFLQRSSF[Sar]A[NMeI]PSSTEVGSNT[Hyp]-NH2; lactam 2-7), the EC50 in series [1] amounted to 0.114 nM; in series [2] it was 0.032 nM.

As to `CC[C@H](C)[C@@H](C(=O)N[C@@H](CC(C)C)C(=O)N[C@@H](CO)C(=O)N[C@@H](CO)C(=O)N[C@H](C(=O)N[C@@H](CCC(=O)O)C(=O)N[C@H](C(=O)NCC(=O)N[C@@H](CO)C(=O)N[C@@H](CC(N)=O)C(=O)N[C@H](C(=O)N1C[C@H](O)C[C@H]1C(N)=O)[C@@H](C)O)C(C)C)[C@@H](C)O)N(C)C(=O)[C@H](C)NC(=O)CN(C)C(=O)[C@H](Cc1ccccc1)NC(=O)[C@H](CCCNC(=N)N)NC(=O)[C@H](CCC(N)=O)NC(=O)[C@H](CC(C)C)NC(=O)[C@H](Cc1ccccc1)NC(=O)[C@H](Cc1c[nH]cn1)NC(=O)[C@H](C)NC(=O)[C@H](CC(C)C)NC(=O)[C@H](CCCNC(=N)N)NC(=O)[C@H](CCC(=O)O)NC(=O)[C@@H](NC(=O)[C@H](C)NC(=O)[C@@H]1CCCNC(=O)C[C@H](NC(=O)[C@H](CCCNC(=N)N)NC(=O)CC[C@H](NC(=O)CCCCCCCCCCCCCCCCCCC(=O)O)C(=O)O)C(=O)NCC(=O)N[C@@H]([C@@H](C)O)C(=O)N[C@@H](C)C(=O)N[C@@H]([C@@H](C)O)C(=O)N1)[C@@H](C)O` [Compound 6, [19CD]-isoGlu-RD()GTAT-Orn()-ATERLAHFLQRF-Gly(Me)-A-Ile(Me)-LSSTEVGSNT-Hyp-NH2] ({C20 diacid-γGlu}-RDGTAT[Orn]ATERLAHFLQRF[Sar]A[NMeI]LSSTEVGSNT[Hyp]-NH2; lactam 2-7), the EC50 in series [1] was found to be 0.327 nM; in series [2], 0.011 nM.

Regarding “N-α-[(S)-4-carboxy-4-(19-carboxynonadecanoylamino)butyryl]-[Arg1,Glu14,His17,Pro37]-pramlintide [NN96, reference compound]”, the “% degradation after 14 days at 40° C. pH4 acetate” value in series [3] (acetate buffer pH 4, 14 days) is given as 3.0%. Moreover, the “% degradation after 14 days at 40° C. pH6 phosphate” value in series [3] (phosphate buffer pH 6, 14 days) is 10.1%. For the same compound, the “% degradation after 14 days at 40° C. pH7 phosphate” value in series [3] (phosphate buffer pH 7, 14 days) was 33.2%.
